Test results from patent US20250197864A1, “LNCRNA TRANSCRIPTS IN MELANOMAGENESIS” (The Regents of the University of California, priority 2021, published 2025).
{Chol} = cholesterol

Key:
Assay in all cases: Cell viability assay (ATP quantitation)
[1] = tested on: AV5 primary melanoma cell line; format: cell-based, human; conditions: 50 nM, 5 days (120 hrs), vs non-targeting control
Protocol: (§1) EsiRNA, siRNA and ASO GapmeRs were transfected in a final concentration of 50 nM unless mentioned otherwise and the transfection reagent Lipofectamine 3000 (2 ul/ml) was added according to the manufacturer's instructions.
(§2) Dependent on cell doubling time, 0.7-2×10^^3 cells were seeded in 96 well plates. 1 day after seeding cells were incubated in media with oligonucleotide concentration and/or MEKi and transfection reagent. 3 (synergy experiments) or 5 (solely ASO) days after transfection Total luminescence was measured on the SynergyHT plate reader (BioTek) using Gen5 software.

[2] = tested on: MM415 melanoma cell line; format: cell-based, human; conditions: 50 nM, 5 days (120 hrs), vs non-targeting control
Protocol: as §1, §2

[3] = tested on: D04 melanoma cell line; format: cell-based, human; conditions: 50 nM, 5 days (120 hrs), vs non-targeting control
Protocol: as §1, §2

[4] = tested on: Sk-Mel-2 melanoma cell line; format: cell-based, human; conditions: 50 nM, 5 days (120 hrs), vs non-targeting control
Protocol: as §1, §2

[5] = tested on: WM3629 melanoma cell line; format: cell-based, human; conditions: 50 nM, 5 days (120 hrs), vs non-targeting control
Protocol: as §1, §2

[6] = tested on: Sk-Mel-28 melanoma cell line; format: cell-based, human; conditions: 50 nM, 5 days (120 hrs), vs non-targeting control
Protocol: as §1, §2

[7] = tested on: MaMel30 melanoma cell line; format: cell-based; conditions: 50 nM, 5 days, vs non-targeting control
Protocol: as §1, §2

[8] = tested on: Sk-N-AS Neuroblastoma cell line; format: cell-based; conditions: 50 nM, 5 days, vs non-targeting control
Protocol: as §1, §2

[9] = tested on: sarcoma cell line SK-LMS-1; format: cell-based; conditions: SK-LMS-1 sarcoma; 50 nM, 120 hrs; Lipofectamine3000 2 ul/ml; vs non-targeting control ASO
Protocol: as §1, §2
(§3) Cell viability was compared to treatment with non-targeting control ASO-treatment. Lipofectamine3000 concentration was 2 ul/ml.

[10] = tested on: hepatocellular carcinoma cell line HepG2; format: cell-based; conditions: 50 nM, 120 hrs, Lipofectamine3000 2 ul/ml, vs non-targeting control ASO
Protocol: as §1, §2, §3

[11] = tested on: WM1366 melanoma cell line; format: cell-based, human; conditions: 50 nM, 5 days (120 hrs), vs non-targeting control
Protocol: as §1, §2

[12] = tested on: Hs852.T primary melanoma cell line; format: cell-based, human; conditions: 50 nM, 5 days (120 hrs), vs non-targeting control
Protocol: as §1, §2

[13] = tested on: WM3211 melanoma cell line; format: cell-based, human; conditions: 50 nM, 5 days (120 hrs), vs non-targeting control
Protocol: as §1, §2

[14] = tested on: VMM39 melanoma cell line; format: cell-based, human; conditions: 50 nM, 5 days (120 hrs), vs non-targeting control
Protocol: as §1, §2

Measured: cell viability decrease

GAGUAACAGAGGAGAACUUUU (antisense AAGUUCUCCUCUGUUACUCUU; siRNA; 5' phosphate on antisense strand, other chemistry not given here) [SEQ ID NO: 25, siRNA targeting both isoforms of AC004540.4]
significant cell viability decrease: [1]

5′-AUUUCAUGUCUGAAGCAAUUCUACT-3′ (chain 2 AAUAAAGUACAGACUUCGUUAAGAUGA; chemistry not given here; one strand is listed 3' to 5') [SEQ ID NO: 44]
significant cell viability decrease: [2] | [3] | [4] | [5]

5′-GCCAACAGCAUGUCAAUUCAGUGAT-3′ (chain 2 GACGGUUGUCGUACAGUUAAGUCACUA; chemistry not given here; one strand is listed 3' to 5') [SEQ ID NO: 43]
significant cell viability decrease: [3] | [4] | [5]

CCCAGAAGCUAGAGGUAAAUU (antisense UUUACCUCUAGCUUCUGGGUU; listed as RNA, chemistry not given here) [SEQ ID NO: 23, siRNA targeting BX470102.3-008]
significant cell viability decrease: [3] | [6] | [1]

GTAAGTAGGAGCTGTG (QIAGEN GapmeR, modification pattern not given here) [SEQ ID NO: 22, Antisense oligonucleotide targeting AL157871.4-201]
significant cell viability decrease: [2] | [3] | [6] | [4] | [7] | [8]

GGAAAGGCGAGCUGAGCAUUU (antisense AUGCUCAGCUCGCCUUUCCUU; listed as RNA, chemistry not given here) [SEQ ID NO: 37, siRNA targeting ARF-AS1 isoform 1]
significant cell viability decrease: [3]

UGGAUAAUGAUAAGGUCUAUU (antisense UAGACCUUAUCAUUAUCCAUU; listed as RNA, chemistry not given here) [SEQ ID NO: 39, siRNA targeting AL157871.4-201]
significant cell viability decrease: [3]

AAGTCCTTGGTTGATG (QIAGEN GapmeR, modification pattern not given here) [SEQ ID NO: 21, Antisense oligonucleotide targeting AL157871.4-201]
significant cell viability decrease: [2] | [3] | [6] | [4] | [8]

5′-UCACAAAGAGAGACAGGAAUU-3′ (chain 2 UUCCUGUCUCUCUUUGUGAUU; listed as RNA, chemistry not given here) [SEQ ID NO:46]
significant cell viability decrease: [2] | [3]

AGCAAUGACUCCUGAACAUUU (antisense AUGUUCAGGAGUCAUUGCUUU; siRNA; 5' phosphate on antisense strand, other chemistry not given here) [SEQ ID NO: 27, siRNA targeting RP11-7011.3]
significant cell viability decrease: [3] | [6] | [1]

CTCATGAGCTGTCGTA (QIAGEN GapmeR, modification pattern not given here) [SEQ ID NO: 41, Antisense oligonucleotide targeting AC004540.4-001 and AC004540.4-002]
not listed: [7] | [8]
significant cell viability decrease: all other assays above

GCGTCAACTAAAGCAA (QIAGEN GapmeR, modification pattern not given here) [SEQ ID NO: 20, Antisense oligonucleotide targeting ARF-AS1-202 and ARF-AS1-203]
significant cell viability decrease: [2] | [3] | [6] | [4] | [8]

AGATGGCTCTGTAAGA (QIAGEN GapmeR, modification pattern not given here) [SEQ ID NO: 49, Antisense oligonucleotide targeting SNX10]
significant cell viability decrease: [3]

5′-GGUAAAAACAUGAAGCUAAUAGUUA-3′ (chain 2 ACCCAUUUUUGUACUUCGAUUAUCAAU; listed as RNA, chemistry not given here; one strand is listed 3' to 5') [SEQ ID NO: 42]
significant cell viability decrease: [2] | [3] | [4]

GACTGGAGATAATTAA-Cholesterol (3' {Chol}, sugars by position and backbone not given here; GapmeR, chemically modified) [SEQ ID NO:47, TRASH targeting ASO with additional Cholesterol modification]
significant cell viability decrease: [9] | [10] | [2] | [3]

ATTGATGAAAGGTGAA (QIAGEN GapmeR, modification pattern not given here) [SEQ ID NO: 19, Antisense oligonucleotide targeting ARF-AS1-201, ARF-AS1-202 and ARF-AS1-203]
significant cell viability decrease: [2] | [3] | [6] | [4] | [7] | [8]
